# Where two headings read alike, the source gives them in different places.
# B1: pGH: purified porcine growth hormone (protein, UniProt P01248 27-216, looked up)
# Somatotropin: FPAMPLSSLFANAVLRAQHLHQLAADTYKEFERAYIPEGQRYSIQNAQAAFCFSETIPAPTGKDEAQQRSDVELLRFSLLLIQSWLGPVQFLSRVFTNSLVFGTSDRVYEKLKDLEEGIQALMRELEDGSPRAGQILKQTYDKFDTNLRSDDALLKNYGLLSCFKKDLHKAETYLRVMKCRRFVESSCAF
# B2: GH: growth hormone (e.g. ncGH, natural chicken GH) (protein, UniProt P08998 26-216, looked up)
# Somatotropin: TFPAMPLSNLFANAVLRAQHLHLLAAETYKEFERTYIPEDQRYTNKNSQAAFCYSETIPAPTGKDDAQQKSDMELLRFSLVLIQSWLTPVQYLSKVFTNNLVFGTSDRVFEKLKDLEEGIQALMRELEDRSPRGPQLLRPTYDKFDIHLRNEDALLKNYGLLSCFKKDLHKVETYLKVMKCRRFGESNCTI
# Key:
# [1] = Protein:fat ratio of broiler chickens under hormone treatments; format: in vivo; conditions: at the doses tested
# [2] = induced hypothyroid state; cited from earlier work
# [3] = TRH 1 or 10 μg/kg/day, GRF 10 μg/kg/day i.v., 21 days, cited from earlier work
# [4] = 1 to 10 μg TRH/day i.v. from 4 to 6 or 8 weeks-of-age; cited from earlier work
# [5] = Three daily intramuscular injections of GRF and dietary T3: growth, feed efficiency, body composition (Example 1); format: in vivo, broiler chickens
# Procedure: Bird management. One day-old broiler cockerels (Ross x Arbor acre) were obtained from a commercial hatchery (Perdue Hatchery, Salisburg, MD). Five birds were randomly assigned to each of 24 pens during the first three weeks. Birds were housed in a Petersime battery-brooder and maintained in a environmentally controlled room on a 20L:4D light/dark cycle. The temperature was held at 33° C. for the first week and reduced 3° C. at weekly intervals. During this period, the chicks were provided with commercial starter ration (3100 kcal ME/kg and 22% crude protein) and water ad libitum.
# At 3 weeks-of-age, four birds per pen were moved to wire cages. From 3 to 4 weeks of age, birds were fed a commercial broiler grower/finisher ration containing 19% crude protein and 3200 kcal metabolizable energy/kg. At 4 weeks of age, birds were fed a special high-protein ration that contained 25% crude protein and 3250 kcal ME/kg feed (See Table 1). […] During the experimental period (5 to 7 weeks of age), individual body weights and feed consumption were determined at weekly intervals for calculation of average daily gain (ADG), average daily feed consumption (ADFC) and gain-to-feed ratio (GTF).
# Hormone treatments. […] Synthetic human pancreatic growth releasing factor (hpGRF1-44) was obtained from Pitman-Moore, Inc. (Terre Haute, IN). […] Begining at 35 days of age, broiler cockerels were given three daily intramuscular injections of buffer (0.05M sodium acetate, pH 5.0) or GRF dissolved in buffer (10 μg/kg body weight) each day at 0800, 1600, and 2400 hr. Each bird was weighed a 3 day intervals to adjust GRF dosage.
# At 49 days of age, chickens were starved for 24 hours and killed for determination of final body, abdominal fat pad, and liver weights. Carcasses from one-half of the birds in each pen (2 birds/pen) were frozen for determination of body composition by proximate analysis. Each frozen carcass, including the liver and abdominal fat, was ground twice in meat grinder fitted with a one-quarter inch dye (Biro Model 5, Biro Mfg. Co., Marblehead, OH). Aliquots of the ground meat were dried at 80° C. for moisture determination. Dried samples were analyzed for protein by macro-Kjeldahl, fat by ether extraction, and ash contents according to established analytical procedures. Body composition data are presented as a percent of final body weight at 7 weeks of age.
# Statistical analyses. All data were analyzed with the pen as the experimental unit since dietary treatments were applied to the pen and feed consumption was determined for each pen. Least squares regression analysis was used to test for effects of treatments on ADG, ADFC, GTF, body weight and body composition. Significant differences (P<0.05) among treatments were determined by Fisher's least significant difference test.
# [6] = Three daily intravenous injections of GRF and dietary T3: growth, feed efficiency, body composition (Example 2); format: in vivo, broiler chickens
# Text: Bird management. Day-old broiler cockerels (Ross X Arbor Acre strain) were obtained from a commercial hatchery (Longnecker Hatchery, Elizabethtown, PA) and randomly assigned in groups of four birds to pens in a heated-battery brooder. Chicks were provided with a commercial broiler-starter ration (Pennfield Corp., Lancaster, PA), containing 3100 kcal metabolizable energy/kg feed and 23% crude protein, and water ad libitum. At 3 weeks of age, birds were transferred to wire pens held in a controlled-environment room. From 3 to 7 weeks of age, birds were maintained under a 20L:4D light-dark cycle at 21° C. and continuously provided with water and a commercial broiler-finisher ration containing 3250 kcal metabolizable energy/kg feed and 20% crude protein. Broiler cockerels were given three daily intravenous injections of either buffer (0.1M phosphate buffer, pH 7.0; BC) or GRF dissloved in buffer (25 μg/kg body weight) at 0800, 1600, and 2400 hr.
# Dietary T3 and GRF Treatments. Four treatments were randomly assigned to pens in a randomized-complete-block design with three replicate pens per treatment. […] All birds were weighted at three day intervals to adjust the daily GRF dosage. Recombinant-derived human growth hormone-releasing factor (rhGRF1-44) was obtained from Pitman-Moore, Inc. (Terre Haute, IN).
# The average daily gain (ADG), average daily feed consuption (ADFC) and the gain-to-feed ratio (GTF) were determined for the two week period (5 to 7 weeks of age). At the end of the experiment (7 weeks of age), each bird was killed to obtain the final body, abdominal fat and liver weights. Carcasses were frozen for determination of body composition as described in Example 1.
# Statistical analyses. A randomized-complete-block design was used in which the four treatments were replicated in three pens. The growth data were analyzed with the pen as the experimental unit, since feed comsumption was determined for each pen of four birds. Significant differences (P≤0.05) due to the main effect of treatment were determined by Fisher's Least Significant Difference test.
# [7] = 0.25 to 1 ppm in diet throughout the entire growth cycle; cited from earlier work
# [8] = Dietary T3 in finishing feed, dose-response: plasma T3, muscle protein turnover, fat, growth, hormones
# [9] = finishing pigs, injection; cited from earlier work
# [10] = 5 to 7 weeks of age, T3 0.25 ppm, GRF 10 μg/kg i.m. 3x daily, mean ± SEM of four pens
# [11] = 7 weeks of age, i.m. GRF, four pens (2 birds/pen)
# [12] = 7 weeks of age, i.m. GRF, mean ± SEM of four pens
# [13] = 5 to 7 weeks of age, T3 0.25 ppm, GRF 25 μg/kg i.v. 3x daily, mean ± SEM of three pens
# [14] = 7 weeks of age, i.v. GRF, mean ± SEM of twelve cockerels
# [15] = 7 weeks of age, i.v. GRF, twelve cockerels
# [16] = 0.25 ppm T3, compared to the control group
# [17] = plasma thyroid hormone bioactivity 360-1200% of normal
molecule,measurement,setting,value
CCCc1cc(=O)[nH]c(=S)[nH]1 [propylthiouracil],Effect on protein:fat ratio,[1],decrease
same,Body fat,[2],increased accumulation of body fat
same,Plasma insulin levels,[2],elevated
"NC(=O)[C@@H]1CCCN1C(=O)[C@H](Cc1c[nH]cn1)NC(=O)[C@@H]1CCC(=O)N1 [TRH, pyro-L-Glu-L-His-L-Pro-NH2]",Effect on protein:fat ratio,[1],decrease
same,Plasma GH levels,[3],elevated
same,Growth rate and feed efficiency,[3]; alone or in combination,failed to stimulate growth rate or improve feed efficiency
same,Growth rate,[4],capable of increasing the growth rate
"N[C@@H](Cc1cc(I)c(Oc2ccc(O)c(I)c2)c(I)c1)C(=O)O [T3, 3,3',5-triiodo-L-thyronine]",ADG (average daily weight gain),"[5]; 5 to 7 weeks of age, T3 0.25 ppm in feed, GRF 10 μg/kg i.m. three times daily, 25% protein ration, mean ± SEM of four pens",76.5 ± 3.0
same,ADFC (average daily feed consumption),[5]; [10],185.1 ± 7.1
same,GTF (gain-to-feed ratio),[5]; [10],0.414 ± 0.01
same,Reduction of total body fat content,"[5]; 7-week-old chickens, compared to the CF+BI group",10%
same,Final body weight BW,"[5]; 7 weeks of age, T3 0.25 ppm, GRF 10 μg/kg i.m. 3x daily, mean ± SEM of four pens",2.75 ± 0.05 kg
same,Body composition: ash,[5]; [11],2.24 ± 0.08 % BW
same,Body composition: fat,[5]; [11],10.0 ± 0.78 % BW
same,Body composition: protein,[5]; [11],17.1 ± 0.26 % BW
same,Body composition: water,[5]; [11],67.6 ± 0.70 % BW
same,Relative weight of abdominal fat pad,[5]; [12],1.12 ± 0.11 % BW
same,Relative weight of liver,[5]; [12],1.99 ± 0.09 % BW
same,Reduction of abdominal fat weight,"[5]; compared to the CF+BC group, P<0.05",31%
same,"Effect on ADG, ADFC or GTF",[5]; dietary T3 or daily i.m. GRF,no effect
same,ADG (average daily weight gain),"[6]; 5 to 7 weeks of age, T3 0.25 ppm in feed, GRF 25 μg/kg i.v. three times daily, mean ± SEM of three pens",70.7 ± 5.3
same,ADFC (average daily feed consumption),[6]; [13],157.0 ± 7.2
same,GTF (gain-to-feed ratio),[6]; [13],0.448 ± 0.021
same,Increase of body water content,"[6]; 7 weeks of age, vs control",2%
same,Reduction of body fat content,"[6]; 7 weeks of age, vs control",10%
same,Final body weight BW,[6]; [14],2.82 ± 0.06 kg
same,Relative weight of abdominal fat,[6]; [14],1.54 ± 0.14 % BW
same,Relative weight of liver,[6]; [14],2.06 ± 0.05 % BW
same,Body composition: ash,[6]; [15],2.45 ± 0.04 % BW
same,Body composition: fat,[6]; [15],11.5 ± 0.64 % BW
same,Body composition: protein,[6]; [15],18.8 ± 0.19 % BW
same,Body composition: water,[6]; [15],67.0 ± 0.50 % BW
same,Reduction of abdominal fat weight,[6]; compared to the CF+BI group,20%
same,"Effect on ADG, ADFC or the GTF ratio","[6]; dietary T3 or daily i.v. GRF alone, or in combination",did not significantly affect
same,Growth performance (body weight gain and feed efficiency),[7],reduced body weight gain and feed efficiency
same,Effect upon weight gain,[8]; 0.1 ppm T3 in finishing feed,no significant adverse effect
same,Increase of protein accretion in breast and leg muscle,[8]; 0.25 ppm T3,45-88%
same,Reduction of abdominal fat weight,[8]; 0.25 ppm T3,22%
same,Increase of FAR of leg muscle,[8]; [16],45%
same,Increase of FAR of pectoralis major (breast muscle),[8]; [16],88%
same,Effect on growth rate,[8]; 0.25 ppm T3 in feed,virtually no statistically significant adverse effect
same,Plasma T3 level,[8]; 0.25 ppm T3 in feed,2.7 ± 0.2 ng/mL
same,Plasma T3 level (control group = 100% of normal),[8]; 0.25 ppm T3 in feed,~ 208%
same,Increase of rate of protein synthesis in the leg muscle,"[8]; 0.25 to 4 ppm of feed, p<0.05",at least 49%
same,Plasma T3 level,[8]; 1 ppm T3 in feed,4.5 ± 0.8 ng/mL
same,Plasma T3 level (control group = 100% of normal),[8]; 1 ppm T3 in feed,~ 346%
same,Effect upon weight gain,[8]; 1 ppm T3 in finishing feed,some deviation from normal weight gain
same,Plasma T3 level,[8]; 4 ppm T3 in feed,16.3 ± 2.6 ng/mL
same,Plasma T3 level (control group = 100% of normal),[8]; 4 ppm T3 in feed,~ 125%
same,Increase of fractional degradation rate of breast muscle,[8]; 4 ppm of T3,116%
same,Increase of fractional synthesis rate (FSR) of the pectoralis major (breast) muscle,"[8]; 4 ppm of T3, p<0.05",56%
same,Fractional Accretion Rate (FAR) in the pectoralis major (breast) muscle,[8]; T3 doses in the 1 to 4 ppm range,affected negatively
same,Plasma GH levels,[8]; dietary T3 during the finishing phase,decrease
same,Glucagon secretion,[8]; dietary T3 treatment alone,increased
same,Insulin secretion,[8]; dietary T3 treatment alone,depresses
same,Protein synthesis rate in breast muscle,[8]; lower doses of T3 (0.25 to 1 ppm),only a slight effect
same,Depression of body weight gain,[8]; [17],≤ 57%
same,Depression of feed consumption,[8]; [17],≤ 35%
B1,Improvement of feed conversion,[9],7-19%
same,Increase of growth rate,[9],10-14%
same,Increase of muscle mass,[9],24-36%
same,Reduction of carcass fat content,[9],18-25%
B2,Effect on protein:fat ratio,[1],decrease

# Reference: patent US5162302A, “Endocrine manipulation to improve body composition of poultry” (University of Delaware, priority 1990, dated 1992)
